“Also recorded” adds a separate entry of the source. Where a name gives a salt, the structure may show the parent alone.

We go through five compounds from US5440031A, “1,4,10,13-tetraoxa-7,16-diazacyclooctadecane derivatives, pharmaceutical compositions containing them and their use for the removal of toxic metal ions and radioactive isotopes from living organism” (priority 1990, dated 1995).

Data set [1] relates to laboratory mice and rats. The data set is described as follows: acute toxicity, LD50/30, injection into blood circulation, 30 days observation. It counts as in vivo, Swiss mice and Wistar rats. The procedure: (§1) The acute toxicity values of the products prepared according to Examples 1 to 16 were determined on laboratory mice and rats in the following manner.
(§2) Solutions containing the compounds in various concentrations were prepared by using physiological saline solution or glucose solution of 5% by weight concentration and the active agents were administered in various concentrations into the blood circulation of the animals by injecting them slowly during 3 to 5 minutes. Groups consisting of 6 to 10 animals (Swiss mice and Wistar rats of both sexes) each were used for the various dose levels. […] The LD50/30 value (i.e. the dose causing the death of 50% of the experimental animals within 30 days) was determined from the number of animals died during this period by using probit analysis/D. J. Finney: Probit Analysis (2nd ed.) Cambridge University Press (1952)/. These values expressed in mmol/kg of body-weight for the active agents according to the invention are summarized in column (B) of Table 1.

A short description of data set [2]: radioactive isotope elimination-increasing effect, isotope into abdominal cavity, whole-body retention. In kind it is in vivo, Swiss mice. To be noted: for EI value: effectivity (isotope elimination as % related to control) multiplied by LD50/30, 0-5 weak, 5-50 medium, 50-100 good, above 100 excellent; for F factor: multiplication of isotope elimination relative to untreated animals, i.v. 50 to 100 μmol/kg, 30 to 60 minutes after isotope. An excerpt:
(§3) The action of the compounds of formula (I) according to the invention, which manifests itself as an increase in the elimination of metal ions damaging the living organism, was investigated by using radioactive strontium or cerium ions on Swiss mice and Wistar rats of both sexes.
(§4) The elimination was studied on radioactive isotopes introduced in various routes to various sites, e.g. to the blood circulation, abdominal cavity, lungs, muscles or subcutaneous connective tissue of the experimental animals. The compound increasing the elimination of the isotopes was administered daily once or two times in the form of an injection, powder or liquid aerosol or plaster to the organism of the experimental animals. Thereafter, whole body activity measurements were performed and retention curves were taken up which then were compared to the results obtained in the control group.
The retention curves obtained were analysed on a computer. "Nonlinear Regression by the Code of BMDP-3R" (BMDP Statistical Software Manual, UCLA, Los Angeles, 1990, Chief Ed. W. J. Dixon) computer software was used for this purpose. It could be stated from the results obtained that the curves could be described by a two-component descending exponential function. Two data were calculated for characterizing the effectivity. One of these was the so-called F factor indicating the increase in the elimination in relation to the control and meaning the multiplication of the isotope elimination under effect of the test compound in relation to the untreated animals/see column (C) in Table 1/.
For the illustrative comparison of the compounds according to the invention additional characteristic data, the so-called EI values are given which were obtained by multiplying the extent of isotope elimination as percentage related to the control group (effectivity, E) with the acute toxicity value (LD50/30, innocuous, I)/see column (D) in Table 1/. Although the EI value is numerically not identical to the therapeutic ratio (safety index), it indicates in all cases to a weak or excellent activity of a product.
The radioactive isotope elimination-increasing effects of compounds prepared according to Examples 1 to 16 were compared on Swiss mice as described hereinafter.
An activity of 37 to 74 kBg (1 to 2 μCi) of radioactive strontium (Sr-85Cl2) or radioactive cerium (Ce-144Cl3), respectively, was administered into the abdominal cavity of the animals which were then divided into treatment groups consisting of 5 to 10 animals each. At 30 to 60 minutes after administration of the isotope, the animals of the treated groups were intravenously (i.v.) given the active agent used in an amount to achieve s concentration of 50 to 100 μmol/kg of body-weight in the animal organism for each treatment. The animals of the control groups were similarly treated with the carrier (sterile physiological saline or glucose solution of 5% by weight concentration) without active agent.
The amount of radioactivity introduced to the animal organism was determined immediately after administration of the isotope, thru these measurements were repeated daily or in every two the or three days in a device constructed for the purpose of the whole-body measurements on small animals. The counts observed were related to the starting activity value of the zero (0) day and a so-called retention/time correlation was obtained by considering the activity retained in the organism. The change of activity of the animal organism in the time is illustrated in FIG. 1 where the time (in days) elapsed after the treatment is shown on the abscissa and the whole-body retention as percentage is plotted on the ordinate. It can be seen that the rate of elimination of Sr-85 administered into the abdominal cavity of control animals was slow: within 1 day only 15%, within 4 days 25% and within 7 days 30% of the activity were eliminated from their organism and the elimination was even more delayed in the later period. […]

A short description of data set [3]: elimination of radioactive strontium introduced through the trachea into the lungs, whole-body retention (FIG. 2). It counts as in vivo, Wistar rats. The source says: FIGS. 2 & 3 show the percentages of metal ions retained in the body, plotted over 32 days after treatment with compound "b)" of example 6 at both full and double strength, referenced against an untreated control.
a) The whole-body retention curves illustrated in FIG. 2 show the elimination of radioactive strontium introduced through the trachea into the lungs of Wistar rats after intraperitoneal (i.p.) administration of the compound described in Example 6 b). It can be seen from the pattern of the upper curve of FIG. 2 that the radioactive strontium was eliminated to a low grade from the organism of control animals treated only with the solvent. Not more than 30 to 35% of the starting activity were eliminated in the days following the inner contamination. […] The rapid elimination of the isotope was continued in the days following the treatment, and reached 88 to 90% in the once-treated group and 94 to 96% in the twice-treated group. […] The residual activity of 5 to 10% measured as whole-body retention was found in the soft parts and liver of the animals whereas the major part (65 to 70%) of the retention found in the controls were built in to the bones. Similarly advantageous results were obtained by administering the compounds according to the invention in an intravenous route or into the subcutaneous connective tissue.

The conditions of data set [4]: literature; cited from earlier work.
Data set [5] can be described thus: acute toxicity, LD50/30, injection into blood circulation, 30 days observation. To be noted: in vivo, iv; dose causing death of 50% of animals within 30 days; slow injection into the blood circulation during 3 to 5 minutes; mice and rats; probit analysis. In kind it is in vivo, Swiss mice and Wistar rats. As for the experimental part: as §1, §2
Data set [6] in a line: decorporation investigations by various routes, whole-body activity and deposition in bones. In kind it is in vivo, Swiss mice and Wistar rats. To be noted: decorporating effect; disodium salt.
From the text: as §3, §4
The retention curves obtained were analysed on a computer. "Nonlinear Regression by the Code of BMDP-3R" (BMDP Statistical Software Manual, UCLA, Los Angeles, 1990, Chief Ed. W. J. Dixon) computer software was used for this purpose. It could be stated from the results obtained that the curves could be described by a two-component descending exponential function. Two data were calculated for characterizing the effectivity. […]

For the compound “N,N'-bis(dicarboxymethyl)-1,4,10,13-tetraoxa-7,16-diazacyclooctadecane calcium complex disodium salt containing disodium hydroxymalonate and sodium chloride [6/b]”, in data set [1] (dose causing death of 50% of animals within 30 days, slow injection into the blood circulation during 3 to 5 minutes, mice and rats, probit analysis), the “Acute toxicity LD50/30” value is “above 3.0 mmol/kg”. For the same compound, in data set [2], the EI value is 160.00 and the F factor amounted to 4.2. For the same compound, the “radioactive strontium in the bones” value in data set [3] (animals killed at the end of the experiment, controls 65 to 70% of retention built in to the bones) was “hardly any or no radioactive strontium could be detected”. For the same compound, the “whole-body load within 1 day following the treatment, treated once” value in data set [3] (i.p., once with 50 μmol/kg, control 90%) came to 20%. For the same compound, in data set [3] (i.p., twice in 3-hour interval, control 90%), the “whole-body load within 1 day following the treatment, treated twice” value came to 20%.

`O=C(O)CN(CCN(CC(=O)O)CC(=O)O)CC(=O)O` [ethylenediaminetetraacetic acid]: the “stability of calcium complexes versus strontium complexes” value in data set [4] is “substantially more stable than their strontium complexes”.

Take `O=C(O)CN(CCN(CC(=O)O)CC(=O)O)CCN(CC(=O)O)CC(=O)O` [diethylenetriaminepentaacetic acid]: the “stability of calcium complexes versus strontium complexes” value in data set [4] is “substantially more stable than their strontium complexes”.

Usually LD50 stands for the dose at which mortality reaches 50%. `CCC(C(=O)O)(C(=O)O)N1CCOCCOCCN(C(C(=O)O)C(=O)O)CCOCCOCC1` [Example 13, N-dicarboxymethyl-N'-(1,1'-dicarboxypropyl)-1,4,10,13-tetraoxa-7,16-diazacyclooctadecane tetrasodium salt sodium bromide double salt] showed an LD50 at 720 h in data set [5] of 302 µmol/kg. For the same compound, the “radioactivity excreted from the animal organism within 1 day” value in data set [2] (Sr-85 into abdominal cavity, single treatment, 100 μmol/kg (stated for Example 13), control 15%) turned out to be 40%. For the same compound, the “radioactivity excreted from the animal organism within 4 days” value in data set [2] (Sr-85 into abdominal cavity, single treatment, 100 μmol/kg (stated for Example 13), control 25%) is reported as 65%. In addition, the “radioactivity excreted from the animal organism within 7 days” value in data set [2] (Sr-85 into abdominal cavity, single treatment, 100 μmol/kg (stated for Example 13), control 30%) stood at 67%. Also, in data set [2], the EI value stood at 13.30 and the F factor turned out to be 2.1.

Regarding `O=C([O-])C(C(=O)[O-])N1CCOCCOCCN(C(C(=O)[O-])C(=O)[O-])CCOCCOCC1.[Ca+2].[Na+].[Na+]` [N,N'-bis(dicarboxymethyl)-1,4,10,13-tetraoxa-7,16-diazacyclooctadecane calcium complex disodium salt], the “toxicity (in words)” value in data set [1] (in vivo) is reported as “low toxicity”. The “effectivity (in words)” value in data set [6] was “particularly outstanding effect; also recorded: high decorporating effectivity”.
